Calls of active or inactive are those of the source.
Experiments:
Nonstructural protein 1 = Nonstructural protein 1 (Influenza A virus, UniProt Q194T2); type: functional, Influenza A virus (A/California/07/2009(H1N1))
[1] = target: Heat shock protein HSP 90-alpha (Homo sapiens, UniProt P07900); type: functional, organism-based
Aminopeptidase N = target: T1, Aminopeptidase N (Plasmodium falciparum FcB1/Columbia, UniProt O96935); assay: malaria alanyl aminopeptidase activity blockers – biochemical, fluorogenic H-Leu-NHMec substrate, 1536-well (AID 1445); parameters: species or system Plasmodium falciparum 3D7, 3D7
T1 sequence (O96935 whole entry): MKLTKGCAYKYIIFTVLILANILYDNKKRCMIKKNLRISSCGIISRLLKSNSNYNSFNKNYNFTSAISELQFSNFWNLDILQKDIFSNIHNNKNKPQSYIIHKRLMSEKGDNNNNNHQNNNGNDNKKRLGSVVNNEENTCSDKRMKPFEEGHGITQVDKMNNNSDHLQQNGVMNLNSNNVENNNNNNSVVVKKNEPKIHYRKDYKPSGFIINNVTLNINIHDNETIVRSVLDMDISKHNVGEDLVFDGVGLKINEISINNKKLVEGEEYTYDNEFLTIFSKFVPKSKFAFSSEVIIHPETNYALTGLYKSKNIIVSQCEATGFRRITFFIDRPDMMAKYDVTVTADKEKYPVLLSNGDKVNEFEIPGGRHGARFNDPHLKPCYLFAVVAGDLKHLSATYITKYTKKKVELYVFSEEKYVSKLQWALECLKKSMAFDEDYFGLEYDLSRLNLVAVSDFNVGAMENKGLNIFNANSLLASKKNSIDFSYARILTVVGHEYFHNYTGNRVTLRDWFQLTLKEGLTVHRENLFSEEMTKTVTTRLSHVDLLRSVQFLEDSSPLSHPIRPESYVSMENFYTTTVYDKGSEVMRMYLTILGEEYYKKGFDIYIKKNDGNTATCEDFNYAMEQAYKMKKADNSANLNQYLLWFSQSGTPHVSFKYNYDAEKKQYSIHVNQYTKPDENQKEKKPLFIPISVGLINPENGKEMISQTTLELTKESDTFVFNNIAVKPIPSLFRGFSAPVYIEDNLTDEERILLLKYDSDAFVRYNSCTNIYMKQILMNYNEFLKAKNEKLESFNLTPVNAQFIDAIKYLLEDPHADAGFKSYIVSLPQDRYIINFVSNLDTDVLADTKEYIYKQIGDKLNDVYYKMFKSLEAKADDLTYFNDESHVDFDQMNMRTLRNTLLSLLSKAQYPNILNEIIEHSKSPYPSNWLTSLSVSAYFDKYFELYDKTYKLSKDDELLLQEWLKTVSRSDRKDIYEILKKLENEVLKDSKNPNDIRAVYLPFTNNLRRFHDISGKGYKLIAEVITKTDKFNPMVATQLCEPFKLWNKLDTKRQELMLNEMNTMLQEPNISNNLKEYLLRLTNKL

Large T antigen = Large T antigen (Simian virus 40, UniProt P03070); type: functional, Betapolyomavirus macacae;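 further: Confirmatory-stage PubChem screen for compounds that inhibit SV40 T antigen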
Protein RecA = target: T2, Protein RecA (Mycobacterium tuberculosis, UniProt P9WHJ3); assay: Fluorescence Cell-Free Homogeneous Dose Retest to Identify Inhibitors of RecA-Intein Splicing Activity. [Related pubchem assays (depositor defined):AID2097, AID2223, AID489010, AID492950]; type: functional
T2 sequence (P9WHJ3 whole entry): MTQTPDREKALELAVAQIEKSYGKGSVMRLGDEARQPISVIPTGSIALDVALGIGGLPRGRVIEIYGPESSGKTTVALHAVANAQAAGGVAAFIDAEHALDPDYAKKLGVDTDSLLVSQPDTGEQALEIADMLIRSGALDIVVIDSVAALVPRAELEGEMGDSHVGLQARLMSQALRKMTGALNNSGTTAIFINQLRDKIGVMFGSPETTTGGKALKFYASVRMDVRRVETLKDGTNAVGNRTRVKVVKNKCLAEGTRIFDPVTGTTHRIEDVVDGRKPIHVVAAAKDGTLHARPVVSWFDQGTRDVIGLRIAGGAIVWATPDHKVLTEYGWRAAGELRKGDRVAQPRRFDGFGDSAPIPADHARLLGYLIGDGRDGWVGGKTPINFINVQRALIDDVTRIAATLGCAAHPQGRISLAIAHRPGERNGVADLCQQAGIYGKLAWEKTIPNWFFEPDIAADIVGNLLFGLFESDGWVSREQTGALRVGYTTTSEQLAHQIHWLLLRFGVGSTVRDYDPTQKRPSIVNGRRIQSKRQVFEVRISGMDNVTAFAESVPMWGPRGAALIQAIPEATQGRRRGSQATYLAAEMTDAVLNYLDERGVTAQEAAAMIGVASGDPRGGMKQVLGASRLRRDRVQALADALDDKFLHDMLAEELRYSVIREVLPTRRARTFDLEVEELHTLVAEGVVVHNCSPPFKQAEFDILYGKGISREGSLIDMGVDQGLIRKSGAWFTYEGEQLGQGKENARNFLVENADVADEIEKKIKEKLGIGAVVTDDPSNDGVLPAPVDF

[2] = target: T3, Microphthalmia-associated transcription factor (Homo sapiens, UniProt O75030); assay: reducers of TRPM1 reporter luminescence, concentration series – cell-based, SK-MEL-5, cherry-picked, set 3, MITF inhibitor project, dose response (AID 493073); type: functional;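 further: SK-MEL-5 melanoma cells with luciferase driven by the MITF target TRPM1 promoter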
T3 sequence (O75030 whole entry): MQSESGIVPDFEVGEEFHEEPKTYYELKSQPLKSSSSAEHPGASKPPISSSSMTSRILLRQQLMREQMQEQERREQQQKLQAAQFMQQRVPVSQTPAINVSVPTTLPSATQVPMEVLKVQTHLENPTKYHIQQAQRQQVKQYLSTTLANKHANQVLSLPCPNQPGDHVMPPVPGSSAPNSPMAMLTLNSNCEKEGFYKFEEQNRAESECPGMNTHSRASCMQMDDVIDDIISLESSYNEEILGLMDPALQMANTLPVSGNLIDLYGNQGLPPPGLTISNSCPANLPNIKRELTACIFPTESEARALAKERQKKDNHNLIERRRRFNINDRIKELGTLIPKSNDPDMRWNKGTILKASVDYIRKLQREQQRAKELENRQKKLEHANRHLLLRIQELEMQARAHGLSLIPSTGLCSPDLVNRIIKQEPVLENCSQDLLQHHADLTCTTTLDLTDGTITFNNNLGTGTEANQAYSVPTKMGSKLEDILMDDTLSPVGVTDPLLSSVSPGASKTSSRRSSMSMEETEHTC

[3] = target: T4, Replicative DNA helicase DnaB (Mycobacterium tuberculosis, UniProt P9WMR3); assay: DnaB intein splicing inhibitors, dose response, biochemical, cell-free fluorescence (AID 449749); type: functional
T4 sequence (P9WMR3 whole entry): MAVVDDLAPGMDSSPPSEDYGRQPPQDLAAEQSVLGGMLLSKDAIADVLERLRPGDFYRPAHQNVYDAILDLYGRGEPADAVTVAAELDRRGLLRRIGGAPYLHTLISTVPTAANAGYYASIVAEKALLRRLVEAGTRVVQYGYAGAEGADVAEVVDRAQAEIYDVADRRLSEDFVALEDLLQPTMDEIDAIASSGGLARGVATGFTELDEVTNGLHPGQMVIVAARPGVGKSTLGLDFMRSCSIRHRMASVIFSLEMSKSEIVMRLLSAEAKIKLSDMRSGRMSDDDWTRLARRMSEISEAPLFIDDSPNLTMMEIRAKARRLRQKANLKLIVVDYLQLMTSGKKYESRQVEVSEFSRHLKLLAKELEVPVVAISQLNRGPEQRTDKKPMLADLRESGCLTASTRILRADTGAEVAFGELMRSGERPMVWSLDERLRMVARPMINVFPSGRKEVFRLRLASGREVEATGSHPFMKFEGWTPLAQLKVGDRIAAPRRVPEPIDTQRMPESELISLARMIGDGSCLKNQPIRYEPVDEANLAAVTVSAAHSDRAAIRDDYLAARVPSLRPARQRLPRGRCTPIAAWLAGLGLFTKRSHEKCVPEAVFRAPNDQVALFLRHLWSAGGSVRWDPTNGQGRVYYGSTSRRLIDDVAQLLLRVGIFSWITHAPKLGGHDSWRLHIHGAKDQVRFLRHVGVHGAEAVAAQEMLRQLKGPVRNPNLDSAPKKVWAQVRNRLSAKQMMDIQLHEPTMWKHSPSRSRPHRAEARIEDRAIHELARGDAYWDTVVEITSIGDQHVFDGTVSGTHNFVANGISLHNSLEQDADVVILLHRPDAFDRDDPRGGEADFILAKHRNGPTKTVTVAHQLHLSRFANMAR

[4] = target: T5, Heat shock factor protein 1 (Mus musculus, UniProt P38532); assay: enhancement of HSF1-driven luciferase signal – cell-based, NIH3T3, luminescence, dose retest, confirmation (AID 435004); type: functional;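 further: stress induced by proteasome inhibitor MG132 added 30 min after compound; luciferase reporter driven by HSF1 response element in NIH3T3 cells; actives raise luminescence as potentiators of the MG132 stress response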
T5 sequence (P38532 whole entry): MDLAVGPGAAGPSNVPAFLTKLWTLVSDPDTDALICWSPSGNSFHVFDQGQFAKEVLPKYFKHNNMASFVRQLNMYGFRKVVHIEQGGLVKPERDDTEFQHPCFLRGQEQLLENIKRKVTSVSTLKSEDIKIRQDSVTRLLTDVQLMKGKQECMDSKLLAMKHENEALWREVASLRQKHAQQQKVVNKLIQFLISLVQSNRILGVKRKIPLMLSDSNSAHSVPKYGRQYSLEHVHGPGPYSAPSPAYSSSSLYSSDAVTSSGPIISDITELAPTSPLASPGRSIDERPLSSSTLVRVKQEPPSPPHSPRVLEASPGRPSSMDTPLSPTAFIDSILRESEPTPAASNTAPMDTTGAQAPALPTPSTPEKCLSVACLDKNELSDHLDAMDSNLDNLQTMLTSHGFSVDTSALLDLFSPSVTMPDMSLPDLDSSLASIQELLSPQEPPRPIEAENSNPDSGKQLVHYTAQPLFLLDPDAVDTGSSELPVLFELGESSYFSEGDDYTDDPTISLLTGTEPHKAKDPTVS

INS1 = assay: INS-1E survival protection against cytokine death – cell-based, luminescence, retest, dose response (AID 449756); type: functional; settings: Rattus norvegicus;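 further: cell death triggered by IL-1 beta plus TNF-alpha plus IFN-gamma mixture; protective hits raise ATP signal compared with cytokine alone wells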
Bcl-2-related protein A1 = target: T6, Bcl-2-related protein A1 (Mus musculus, UniProt Q07440); type: functional;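 further: confirmatory dose–response counterscreen on Bfl-1, used to check hits from a UBC13 polyubiquitin inhibitor campaign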
T6 sequence (Q07440 whole entry): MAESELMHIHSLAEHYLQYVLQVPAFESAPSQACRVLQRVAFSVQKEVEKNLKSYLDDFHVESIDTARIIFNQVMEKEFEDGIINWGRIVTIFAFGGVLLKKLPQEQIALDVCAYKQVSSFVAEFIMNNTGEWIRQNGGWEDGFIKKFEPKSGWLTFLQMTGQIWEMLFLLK

[5] = target: T7, Ubiquitin-conjugating enzyme E2 N (Homo sapiens, UniProt P61088); type: functional
T7 sequence (P61088 whole entry): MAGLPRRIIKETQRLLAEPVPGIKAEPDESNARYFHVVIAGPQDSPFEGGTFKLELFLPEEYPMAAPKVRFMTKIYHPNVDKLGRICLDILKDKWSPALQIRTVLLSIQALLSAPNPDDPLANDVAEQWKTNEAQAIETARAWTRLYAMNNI

[6] = target: T7, Ubiquitin-conjugating enzyme E2 N; type: functional; remark: listed apart in the source
H4 = assay: Luminescence Cell-Based Dose Response HTS to Identify Activators of 5'UTR Stem-Loop Driven Prion Protein mRNA Translation in H4 Neuroglioblastoma Cells. [Related pubchem assays: 1829 (Project Summary), 1814 (Primary HTS)]; type: functional; settings: Homo sapiens
[7] = Luminescence Cell-Based Dose Response HTS to Identify Activators of Luciferase Translation or Activity in H4 […] Cells. [Related pubchem assays: 1829 (Project Summary), 1814 (Primary HTS)]; type: functional
[8] = Luminescence Cell-Based Dose Confirmation HTS to Identify Activators of 5'UTR Stem-Loop Driven Alpha-Synuclein mRNA Translation in H4 Neuroglioblastoma Cells. [Related pubchem assays: 1829 (Project Summary), 1814 (Primary HTS)]; type: functional
cells = type: functional
[9] = blockers of HIV-1 envelope-mediated cell-cell fusion – cherry-pick, dose response (AID 652057); type: functional, cell-based
[10] = HIV-1 AD8 envelope cell-cell fusion blockers – cherry-pick, dose response (AID 652062); type: functional, cell-based;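 further: luciferase signal from cell-cell fusion driven by HIV-1 clade B AD8 Env; potency is for inhibitors of fusion seen as a drop in luminescence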
[11] = blockers of HIV-1 ZM109 envelope-driven cell-cell fusion – HeLa effector, CEM target cells, luciferase, cherry-pick, dose response (AID 652058); type: functional, cell-based;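 further: luciferase signal from HIV-1 Env mediated cell-cell fusion of effector and target cells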

Nonstructural protein 1, sequence (Q194T2 whole entry): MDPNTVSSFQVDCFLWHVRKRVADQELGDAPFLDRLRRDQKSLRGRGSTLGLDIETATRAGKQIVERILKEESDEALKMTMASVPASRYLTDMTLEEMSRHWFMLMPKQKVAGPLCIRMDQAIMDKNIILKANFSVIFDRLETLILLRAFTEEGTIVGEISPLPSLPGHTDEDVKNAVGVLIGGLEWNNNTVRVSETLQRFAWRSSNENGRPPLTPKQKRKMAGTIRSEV
Large T antigen, sequence (P03070 whole entry): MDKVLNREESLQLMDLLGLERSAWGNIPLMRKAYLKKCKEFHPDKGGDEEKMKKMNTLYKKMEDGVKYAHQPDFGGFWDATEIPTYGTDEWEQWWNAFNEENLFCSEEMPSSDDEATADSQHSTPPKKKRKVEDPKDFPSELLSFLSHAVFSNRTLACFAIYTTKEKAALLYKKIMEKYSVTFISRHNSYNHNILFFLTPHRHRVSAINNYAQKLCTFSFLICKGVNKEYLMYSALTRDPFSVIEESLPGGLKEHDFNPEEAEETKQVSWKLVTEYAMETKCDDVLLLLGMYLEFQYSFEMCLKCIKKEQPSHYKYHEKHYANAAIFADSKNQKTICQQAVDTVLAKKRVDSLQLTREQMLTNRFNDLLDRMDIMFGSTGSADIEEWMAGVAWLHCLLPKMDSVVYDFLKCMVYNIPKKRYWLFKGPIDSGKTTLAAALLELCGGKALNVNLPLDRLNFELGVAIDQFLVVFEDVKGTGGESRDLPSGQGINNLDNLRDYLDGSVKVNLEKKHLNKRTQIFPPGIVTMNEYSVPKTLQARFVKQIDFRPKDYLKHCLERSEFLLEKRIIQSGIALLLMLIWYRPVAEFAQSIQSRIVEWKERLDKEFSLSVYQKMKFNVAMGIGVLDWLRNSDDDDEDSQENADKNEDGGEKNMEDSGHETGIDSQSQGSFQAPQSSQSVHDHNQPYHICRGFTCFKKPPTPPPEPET

Structure (SMILES): CSC(=S)NN=C(C)c1cccc(C)n1
- IC50 (Nonstructural protein 1): 1.1 µM (active)
- AC50 [1]: 23.7 µM (active)

Structure (SMILES): Cc1nc(NS(=O)(=O)c2ccccc2)sc1C(=O)N/N=C/c1ccccc1
- IC50 (Aminopeptidase N): 50.1 µM (active)

Structure (SMILES): CCN(CC)S(=O)(=O)c1ccc(C(=O)Oc2coc(CSc3nc(C)cc(C)n3)cc2=O)cc1
- IC50 (Large T antigen): 40.4 µM (active)

Structure (SMILES): Cc1c(C#N)c(NC(=O)CCl)n(Cc2ccccc2)c1C
- EC50 (Protein RecA): 3.39 µM (active)
- AC50 [2]: 11.2 µM (active)
- AC50 [3]: 21.5 µM (active)
- EC50 [4]: > 260 µM (inactive)

Structure (SMILES): CC(NC(=O)c1ccc(Br)cc1)c1ccc2c(c1)CCCC2 (configuration not stated)
- AC50 [1]: 2.75 µM (active)

Structure (SMILES): CN(C)C1CCN(Cc2cc(COCc3ccccc3)c3cccnc3c2O)C1 (configuration not stated)
- IC50 (Nonstructural protein 1): 5.98 µM (active)
- AC50 [2]: 9.99 µM (active)
- AC50 (INS1): 2.78 µM (active)

Structure (SMILES): Cc1sc2nc(C3CC3)nc(SCC(=O)NCc3ccco3)c2c1C
- AC50 [1]: 5.75 µM (active)

Structure (SMILES): CCN(CC)CCNC(=O)c1ccc(NC(=O)c2cccc(S(=O)(=O)N3c4ccccc4CC3C)c2)cc1 (configuration not stated)
- AC50 [2]: 10.5 µM (active)

Structure (SMILES): O=C(CSc1nc2ccsc2c(=O)n1Cc1ccccc1)NCc1ccco1
- IC50 (Bcl-2-related protein A1): > 20 µM (inactive)
- IC50 [5]: > 20 µM (inactive)
- IC50 [6]: 18.1 µM (active)

Structure (SMILES): O=C1CC(c2ccccc2)=NN1c1nc(-c2ccccc2)cs1
- EC50 (H4): > 120 µM (not active)
- EC50 [7]: 11.4 µM (active)
- AC50 [1]: 3.34 µM (active)
- EC50 [8]: 13.2 µM (active)

Structure (SMILES): O=C1OC(/C(=C\Nc2cc(Cl)ccc2O)[N+](=O)[O-])c2ccccc21 (configuration not stated)
- IC50 (Aminopeptidase N): 48.8 µM (active)
- IC50 (cells): 11.7 µM (active)

Structure (SMILES): O=C1CCC(=O)N1c1nc2n(n1)C(c1ccccc1)C=C(c1ccc(Br)cc1)N2 (configuration not stated)
- IC50 (Aminopeptidase N): 69.7 µM (active)

Structure (SMILES): Cc1ccc(S(=O)(=O)N(C)C[C@@H]2Oc3ncc(/C=C/c4ccccc4)cc3C(=O)N([C@H](C)CO)C[C@@H]2C)cc1
- AC50 [9]: 0.577 µM (active)
- AC50 [10]: 3.55 µM (active)
- AC50 [11]: 2.57 µM (active)

Reference: ChEMBL document CHEMBL1201862, “PubChem BioAssay data set” (2004)
